Reference: patent publication US20250161238A1, “NMDAR Antagonists Prevent Ageing and Aging-Associated Conditions and Diseases Through Increasing 20S Proteasome Activity” (priority 2022, published 2025)
Where a name gives a salt, the structure may show the parent alone. Read-outs that look alike come from different tables or passages of the source. Peptide text beside a SMILES is read from it. * marks the point of attachment. Cbz = O=C(OCc1ccccc1)*

Key:
[1] = target: T1, proteasome (Homo sapiens, UniProt P28072+P28074+Q99436); assay: In-Cell Fluorogenic Proteasome Assay, HepG2; type: cell-based; design: endogenous in cells; host or cells: HepG2 (A9), T98G (A10), digitonin/Tween-permeabilised whole cells; conditions: for trypsin, chemotrypsin and caspase-like proteasome activities: whole HepG2 cell
T1 sequence (P28074 60-263): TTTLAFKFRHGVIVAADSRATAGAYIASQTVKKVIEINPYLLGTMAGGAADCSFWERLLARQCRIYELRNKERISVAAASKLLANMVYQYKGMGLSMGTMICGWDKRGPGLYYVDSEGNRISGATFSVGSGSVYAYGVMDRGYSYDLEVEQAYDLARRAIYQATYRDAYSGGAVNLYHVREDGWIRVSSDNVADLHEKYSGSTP
T1 sequence (Q99436 44-277): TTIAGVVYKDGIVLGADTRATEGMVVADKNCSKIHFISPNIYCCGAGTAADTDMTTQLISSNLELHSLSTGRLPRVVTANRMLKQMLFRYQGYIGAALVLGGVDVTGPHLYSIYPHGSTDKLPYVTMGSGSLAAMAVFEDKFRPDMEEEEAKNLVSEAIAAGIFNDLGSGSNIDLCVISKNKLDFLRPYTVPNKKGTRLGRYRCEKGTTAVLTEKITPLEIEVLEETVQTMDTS
T1 sequence (P28072 1-239): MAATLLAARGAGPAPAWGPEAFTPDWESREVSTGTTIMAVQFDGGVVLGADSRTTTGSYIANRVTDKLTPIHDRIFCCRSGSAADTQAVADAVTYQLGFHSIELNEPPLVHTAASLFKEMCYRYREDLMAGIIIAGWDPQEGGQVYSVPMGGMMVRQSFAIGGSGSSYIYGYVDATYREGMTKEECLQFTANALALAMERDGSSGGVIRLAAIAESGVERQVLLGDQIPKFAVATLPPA
Description: (§1) For a 96-well plate format, 8×10^3 cells per well were seeded. 24 hours later medium was changed with NMDAR blocker containing medium. Two hours later 100 μl of 2× flourescence cell buffer: (1 ml 1M tris hcl ph: 7.5, 500 μl 1M KCL, 200 μl […], 200 μl 0.1M MgCL2, 50 μl % 0.2 tween 20, 75 μl digitonin 20 mg/ml in DMSO ChemCruz cat no: sc-280675, 10 μl flourescence substrates including Suc-LLVY-AMC, Z-LLE-AMC, and Ac-RLR-AMC Ac-RLR-AMC, 8.1 ml H2O). After incubation at room temperature for a 5 minutes the flourescence of each sample were measured in a flourescence spectrometer (Biotek instrument-Synergy HT).

[2] = system: p21-GFP fusion protein; assay: p21-GFP fusion protein amount in cells; type: cell-based, human
[3] = system: mice with GD symptoms; conditions: A/J, C3H/HeJ, DBA/2J, C57BL6/JolaHsd, CBE 25 mg/kg day, cited from earlier work
[4] = target: T1, proteasome; assay: In-Cell Fluorogenic Proteasome Assay, T98G; type: cell-based; design: endogenous in cells; host or cells: T98G (A10), digitonin/Tween-permeabilised whole cells; conditions: whole T98G cell
Description: as §1

[5] = system: Ub-YFP; assay: Ub-YFP degredation in Hep3B cells; type: cell-based, human
Description: This finding was supported by the following experiments; First, a model was developed to find inhibitor or inhibitors for the ubiquitin dependent degredation in the Hep3B cell line. For this purpose Hep3B cell expressing Ub-YFP genome were prepared. Ub-YFP is a system which was used to detect the ubiquitin dependent proteasome activity (26S). It is also known that Ub-YFP is not affected by the ubiquitin-independent protesome system. In further experiments, we tested molecules which are involved in different parts of the ubiquitination processes including PYR41 (Ubiquitin-activating enzyme (E1) inhibitor), NCC697923 (UBE2N E2 ubiquitin-conjugating enzyme inhibitor), SMER3 (ubiquitin ligase E3 inhibitor), SZL-P1-411 (Skp2 E3 ligase inhibitor), SKPIN C1 (Skp2 E3 ligase inhibitor), P005091 (USP7 inhibitor), Vialin A (USP4 and USP5 inhibitor), Spautin A (USP10 and USP13 inhibitor), ML 323 (USP1-UAF1 inhibitor), IU1 (USP14 inhibitor), and Mg132 (protesome inhibitor) for the inhibition of Ub-YFP degredation. […] MG132 was used as the inhibitor of the protesome activity (FIG. 12A). In the next experiment YFP protein amount was investigated in the presence of ketamin, Pyr41, and ketamin and Pyr41 together by western blot in Hep3B cell.
The Ub-R-YFP open-reading frame was obtained from Ub-R-YFP was a gift from Nico Dantuma (Addgene plasmid #11948). Ub-R-YFP sequence was obtained from the original vector by cutting the plasmid with NheI and NotI enzymes (Thermo Scientific), blunt ended and was cloned into pBSK-clo2D which is cut by EcoRV restriction enzyme (SibEnzyme, E059). Ub-R-YFP was obtained from the pBSK-clo2D vector by cutting with BamHI. pLV-EF1a-IRES-Puro (85132-Addgene) vector was cut by BamHI restriction enzyme and dephospharylated and ligated with Ub-R-YFP. After the orientation construct was determined, pLV-EF1a-IRES-Puro-Ub-R-YFP was reproduced in large volumes using DH5a E. Coli.
Hek293T cells were transfected with the pLV-EF1a-IRES-Puro-Ub-R-YFP and helper vectors psPAX2 and pMD2.G using Calcium Phosphate Mammalian Transfection Kit (631312-Takara bio). After 48 h supernatants containing Ub-R-YFP lentivirus were collected and target cells were infected under the presence of […] polybrene. After 24 hours, the media of the cells were replaced with media containing […] puromycin for 6 days. Then living cells were combined in a pool. Infected clones were maintained in the presence of 250 ng/ml puromycin.

For `CN1C(=O)[C@]23CC4=CC=C[C@H](O)[C@H]4N2C(=O)[C@@]1(CO)SS3` [Gliotoxin], the “chemotrypsin activity of proteasome at low dose of Gliotoxin” value ([1]; 5 uM, compared to control) was “not statistically changed” and the “chemotrypsin activity of proteasome at high dose of gliotoxin” value ([1]; 25 uM, in the presence of NMDR blockers) was “inhibited”.
For `OO` [H2O2], the “GFP signal of p21-GFP” value [2] was “increased the GFP signal dramatically”.
In the case of `Cc1cc(C(=O)CN2CCCC2)c(C)n1-c1ccc(F)cc1` [IU1], the “trypsin, chemotrypsin and caspase-like proteasome activities” value [1] is reported as “increases”.
In the case of `C[C@]12N[C@H](Cc3ccccc31)c1ccccc12` [MK801, (5S,10R)-(+)-5-Methyl-10,11-dihydro-5H dibenzo [a,d]cyclobepten-5,10-imine maleate], the “life span of mice with Gaucher disease symptoms” value [3] is listed as “dramatically extended”, the “life span of mice with Gaucher disease symptoms” value ([3]; listed as MK-801) is listed as “increase” and the “trypsin, chemotrypsin and caspase-like proteasome activities” value [1] is listed as “increased”. The “trypsin, chemotrypsin and caspase-like proteasome activities” value [4] was “increased”.
For `CC(C)C[C@@H](C=O)NC(=O)[C@H](CC(C)C)NC(=O)[C@H](CC(C)C)NC(=O)OCc1ccccc1` [Mg132] (Cbz-Leu-Leu-Leu-aldehyde), the “trypsin activity of proteasome” value ([1]; whole cell, HepG2, T98G and Hep3B) was “did not inhibit” and the “chemotrypsin activity of proteasome” value ([1]; whole cell, substance alone) was “inhibits”.
With `CCOC(=O)c1ccc(N2NC(=O)/C(=C/c3ccc([N+](=O)[O-])o3)C2=O)cc1` [PYR41] the “p21-GFP fusion protein / GFP amount” value [2] was “increase”, the Ub-YFP degredation ([5]; Hep3B expressing Ub-YFP) was “inhibits” and the YFP protein amount ([5]; Hep3B, western blot) was “increase”.
